Data: ChEMBL document CHEMBL1156271, “Discovery and SAR of novel pyrazole-based thioethers as cathepsin S inhibitors: part 1” (Bioorg Med Chem Lett, 2010)

biological target: T1, Cathepsin S (Homo sapiens, UniProt P25774); assay: Inhibition of human cathepsin S
T1 sequence (P25774 whole entry): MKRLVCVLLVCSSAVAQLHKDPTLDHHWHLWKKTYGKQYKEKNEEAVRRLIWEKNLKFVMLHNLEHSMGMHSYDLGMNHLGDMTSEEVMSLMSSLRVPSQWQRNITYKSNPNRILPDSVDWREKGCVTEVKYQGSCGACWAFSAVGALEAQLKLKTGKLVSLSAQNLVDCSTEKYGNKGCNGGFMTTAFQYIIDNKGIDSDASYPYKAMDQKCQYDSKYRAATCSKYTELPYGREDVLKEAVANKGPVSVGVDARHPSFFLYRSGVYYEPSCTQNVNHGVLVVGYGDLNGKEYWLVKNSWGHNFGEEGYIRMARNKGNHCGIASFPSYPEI

IC50 [nM]	Structure (SMILES)
960	CS(=O)(=O)N1CCc2c(c(-c3ccc(Cl)c(SCCO)c3)nn2CCCN2CCOCC2)C1
55	CS(=O)(=O)N1CCc2c(c(-c3ccc(C(F)(F)F)c(SCCN4CCC5CCCCC5C4)c3)nn2CCCN2CCC(N3CCCC3=O)CC2)C1 (centres undefined)

biological target: T1, Cathepsin S; assay: Inhibition of cathepsin S in human JY cells assessed as inhibition of invariant chain degradation; type: cell-based

IC50 [nM]	Structure (SMILES)
130	CN1CCN(CCSc2cc(-c3nn(CCCN4CCC(N5CCCC5=O)CC4)c4c3CN(S(C)(=O)=O)CC4)ccc2C(F)(F)F)CC1
80	CS(=O)(=O)N1CCc2c(c(-c3ccc(C(F)(F)F)c(SCCN4CCCC4)c3)nn2CCCN2CCC(N3CCCC3=O)CC2)C1
350	CS(=O)(=O)N1CCc2c(c(-c3ccc(C(F)(F)F)c(SCCN4CCC(O)CC4)c3)nn2CCCN2CCC(N3CCCC3=O)CC2)C1
680	CS(=O)(=O)N1CCc2c(c(-c3ccc(C(F)(F)F)c(SCCN4CCOCC4)c3)nn2CCCN2CCC(N3CCCC3=O)CC2)C1
810	CC1CCN(CCSc2cc(-c3nn(CCCN4CCC(N5CCCC5=O)CC4)c4c3CN(S(C)(=O)=O)CC4)ccc2C(F)(F)F)CC1

Further lines, the molecule ahead of its results:

Structure (SMILES)	IC50 [nM]
CS(=O)(=O)N1CCc2c(c(-c3ccc(C(F)(F)F)c(SCCN4CCCCC4)c3)nn2CCCN2CCCC2)C1	470
CS(=O)(=O)N1CCc2c(c(-c3ccc(C(F)(F)F)c(SCCNCc4ccccc4)c3)nn2CCCN2CCC(N3CCCC3=O)CC2)C1	460
CS(=O)(=O)N1CCc2c(c(-c3ccc(C(F)(F)F)c(SCCN4CCC(c5ccccc5)CC4)c3)nn2CCCN2CCC(N3CCCC3=O)CC2)C1	950
CC(C)(C)C1CCN(CCSc2cc(-c3nn(CCCN4CCC(N5CCCC5=O)CC4)c4c3CN(S(C)(=O)=O)CC4)ccc2C(F)(F)F)CC1	330
CS(=O)(=O)N1CCc2c(c(-c3ccc(C(F)(F)F)c(SCCN4CCC5CCCCC5C4)c3)nn2CCCN2CCC(N3CCCC3=O)CC2)C1 (centres undefined)	460
CS(=O)(=O)N1CCc2c(c(-c3ccc(C(F)(F)F)c(SCCN4CCCCC4)c3)nn2CCCN2CCOCC2)C1	3570
CS(=O)(=O)N1CCc2c(c(-c3ccc(C(F)(F)F)c(SCCN4CCCCC4)c3)nn2CCCN2CCC(N3CCCC3)CC2)C1	320
